Data from US12508271B2, “Prodrugs of 2-PMPA for healthy tissue protection during PSMA-targeted cancer imaging or radiotherapy” (The Johns Hopkins University, priority 2017, dated 2025).

Key:
[1] = Pharmacokinetics/tissue distribution of 2-PMPA in C4-2 prostate cancer tumor-bearing NSG mice; format: in vivo; conditions: 2-PMPA administered directly, 3 mg/kg i.v.
Experimental: To generate a C4-2 in vivo model, 3×10^6 LNCaP-C4-2 cells were subcutaneously injected into the flanks of male NSG mice. When tumors grew to approximately 600-800 mm^3, tumors were excised, aseptically cut into 2-mm×2-mm pieces and frozen back viably (5% DMSO/95% FBS). Tumors were not passaged from mouse to mouse more than 4 times. For the current experiment, two vials of viably frozen explants were thawed at 37° C. Tumor explants were washed in RPMI without FCS and then surgically implanted in a subcutaneous pocket in male NSG mice. When tumors reached 600-800 mm^3, mice were euthanized, tumors excised aseptically, and cut into 2-mm×2-mm pieces prior to re-implantation into 40 mice. When tumors reached 500-700 mm^3, the pharmacokinetic experiment was performed. 2-PMPA (3 mg/kg, i.v.) or a molar equivalent of Tris-POC-2-PMPA (7.62 mg/kg, i.v.) were injected via tail vein after dissolution in vehicle (5% EtOH/10% Tween 80/85% 50 mM HEPES). Mice were then euthanized under isoflurane anesthesia 0.25, 0.5, 1, 3, or 6 hours later (n=3/group). Blood was collected by cardiac puncture into EDTA-lined tubes and stored on ice until plasma was isolated by centrifugation. Salivary glands, kidneys, and tumor were harvested and flash frozen on dry ice. All tissues were stored at −80° C. prior to bioanalysis.

[2] = cited from earlier work
PSMA [3] = molecular target: PSMA (Homo sapiens, UniProt Q04609); conditions: 2-PMPA 0.01 mg co-injection with 177Lu-PSMA I&T (100 MBq); cited from earlier work
Sequence of PSMA (Homo sapiens, UniProt Q04609) (Q04609 whole entry): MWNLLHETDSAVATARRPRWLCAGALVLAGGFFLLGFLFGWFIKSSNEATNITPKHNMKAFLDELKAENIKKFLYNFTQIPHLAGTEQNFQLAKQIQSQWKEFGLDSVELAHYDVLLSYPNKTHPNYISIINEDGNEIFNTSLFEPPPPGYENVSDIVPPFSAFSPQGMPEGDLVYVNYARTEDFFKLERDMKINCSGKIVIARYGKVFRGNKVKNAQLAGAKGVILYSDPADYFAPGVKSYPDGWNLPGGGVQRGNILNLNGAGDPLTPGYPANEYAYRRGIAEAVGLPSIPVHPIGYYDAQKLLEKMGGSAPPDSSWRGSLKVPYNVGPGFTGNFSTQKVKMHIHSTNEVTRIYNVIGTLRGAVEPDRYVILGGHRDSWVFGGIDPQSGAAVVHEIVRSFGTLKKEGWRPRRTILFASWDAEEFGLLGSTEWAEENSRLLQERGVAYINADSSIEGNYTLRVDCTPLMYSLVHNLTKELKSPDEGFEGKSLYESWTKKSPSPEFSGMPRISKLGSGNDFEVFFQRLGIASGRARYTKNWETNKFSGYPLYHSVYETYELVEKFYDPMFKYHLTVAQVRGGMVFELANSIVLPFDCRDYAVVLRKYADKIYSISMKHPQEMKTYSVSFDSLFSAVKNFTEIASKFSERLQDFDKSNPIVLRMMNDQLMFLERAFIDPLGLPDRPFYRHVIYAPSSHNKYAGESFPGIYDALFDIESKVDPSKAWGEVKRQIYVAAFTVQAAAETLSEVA

PSMA [4] = molecular target: PSMA (Mus musculus, UniProt O35409); conditions: 2-PMPA 0.01 mg co-injection with 177Lu-PSMA I&T (100 MBq); cited from earlier work
Sequence of PSMA (Mus musculus, UniProt O35409) (O35409 whole entry): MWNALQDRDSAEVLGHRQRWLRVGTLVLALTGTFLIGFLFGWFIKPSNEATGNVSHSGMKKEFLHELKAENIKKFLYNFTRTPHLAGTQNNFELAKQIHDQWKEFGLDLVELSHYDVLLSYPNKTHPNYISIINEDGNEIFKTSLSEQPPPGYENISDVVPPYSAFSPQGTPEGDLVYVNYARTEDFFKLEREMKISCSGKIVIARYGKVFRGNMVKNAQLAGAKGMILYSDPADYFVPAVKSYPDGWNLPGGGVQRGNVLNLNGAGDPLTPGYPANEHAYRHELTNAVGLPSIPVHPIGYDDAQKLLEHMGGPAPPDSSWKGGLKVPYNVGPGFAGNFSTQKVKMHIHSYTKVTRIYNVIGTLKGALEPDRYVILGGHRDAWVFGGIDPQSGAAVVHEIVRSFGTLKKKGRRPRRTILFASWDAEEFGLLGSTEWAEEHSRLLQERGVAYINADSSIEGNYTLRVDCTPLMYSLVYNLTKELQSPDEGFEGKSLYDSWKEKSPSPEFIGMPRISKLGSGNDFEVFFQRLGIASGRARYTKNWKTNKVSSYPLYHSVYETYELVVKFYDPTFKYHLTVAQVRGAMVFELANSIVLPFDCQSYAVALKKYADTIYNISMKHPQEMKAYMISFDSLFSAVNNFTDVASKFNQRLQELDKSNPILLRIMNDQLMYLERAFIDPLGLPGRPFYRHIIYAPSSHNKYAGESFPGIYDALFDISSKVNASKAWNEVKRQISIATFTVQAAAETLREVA

Structure (SMILES): O=C(O)CCC(CP(=O)(O)O)C(=O)O (stereo not shown) [Compound 2-PMPA, 2-(phosphonomethyl)pentanedioic acid]
- 2-PMPA kidney exposure, fold lower than achieved with TRIS-POC-2-PMPA delivery [1]: 4 fold
- 2-PMPA salivary gland exposure, fold lower than achieved with TRIS-POC-2-PMPA delivery [1]: 10 fold
- salivary gland penetration ([2]; 2-PMPA administered as parent): little to no
- oral availability ([2]; in vivo, po): negligible
- inhibition of tumor uptake of the radiotherapeutic (PSMA [3]): more than 50%
- nephrotoxicity 3 months later (PSMA [4]): attenuated nephrotoxicity
- reduction of absorbed dose to the kidneys (PSMA [4]): 83%
